Structures are written as SMILES.

Experiment [1] concerns the target TP53/CDKN2A^KO GEJ organoids. Nature of the experiment: Ki67 immunofluorescence labeling index. The format is cell-based, human. The settings on record: WEB2086 at various concentrations vs vehicle control (0.1% DMSO); Day 10. The procedure:
(§1) Organoid cultures and tissues were fixed overnight in 10% formalin at room temperature. Paraffin-embedded organoids and tissues were serially sectioned into 10-μm slices. Paraffin sections were deparaffinized, rehydrated, followed by either staining for hematoxylin and eosin (H&E), or antigen retrieval in sub-boiling 10-mM sodium citrate buffer pH 6.0 for 10 mins. For immunofluorescence (IF), slides were permeabilized in 0.5% TritonX-100 in PBS and blocked in 1% goat serum in PBS for 30 mins at room temperature. After blocking, slides were incubated with anti-Ki67 (1:200, Abcam) overnight in a humidified chamber at 4° C. Sections were washed by PBST (3 times for 5 mins each) and incubated with Alexa Fluor secondary antibodies (1:500) for 1 hr. After washing with PBST, slides were mounted with Fluoroshied with DAPI (Sigma).

The test system of experiment [2] is TP53/CDKN2A^KO GEJ organoids. Nature of the experiment: Organoid viability assay (WST-1 assay). The format is cell-based, human. On the procedure:
To quantify metabolically active viable cells, organoids were seeded onto 96-well plates and cultured. At indicated time points, 10 μL per well of Cell Proliferation Reagent WST-1 assay kits were added to the 96-well plates and incubated with organoids for 90 minutes. After incubation, only media was transferred to the wells of a new 96-well plate, which was read at an absorbance of 450 nm by a Thermo Scientific Microplate Reader. All experiments were performed in triplicate.
Background: Formazan colour is commonly taken as a measure of viable cells.

The test system of experiment [3] is TP53/CDKN2A^KO GEJ organoids. Description: Average organoid size by phase-contrast imaging. Particulars: WEB2086 at various concentrations vs vehicle control (0.1% DMSO). Format: cell-based, human. An excerpt: (FIG. 4A) mRNA levels of PTAFR in TP53/CDKN2A^KO vs. control GEJ organoids (left) and normal GEJ vs. EAC tissues. (FIG. 4B) Knockdown of PTAFR mRNA by siRNAs in TP53/CDKN2A^KO GEJ organoids. (FIG. 4C) Average organoid size and (E) cell viability determined by phase-contrast imaging and WST1 assays, respectively. (FIG. 4D) Ki67 labeling images and (FIG. 4E) quantification obtained on Day 7. *P<0.05 vs. same-day siCtrl. Scale bar=100 μm. (FIG. 4F-FIG. 4H) Average organoid size and cell viability (H) determined by phase-contrast imaging and WST1 assays, respectively. (FIG. 4G and FIG. 4H) Ki67 labeling images and quantification obtained on Day 10. Scale bar=100 μm. *P<0.05 vs Ctrl-DMSO on the same day; +, P<0.05 vs. WEB 10 μM on the same day; #P<0.05 vs. WEB 15 μM on the same day;
GEJ organoids were established as described in FIG. 1A. Briefly, fresh endoscopic GEJ biopsies were preserved in ice-cold conditioned PBS (PBS containing 10 μM ROCK inhibitor Y27632, 2% (vol/vol) penicillin/streptomycin, and 1× Primocin) until further processing within 24 hours. After washing biopsies with conditioned PBS at least 5 times, samples were minced into fragments <1 mm^3 using microdissecting scissors. […]
Following centrifugation at 400 g at 4° C. for 3 minutes, pelleted cell clusters were resuspended in Matrigel. […] Culture medium was changed once every three days until the organoids were ready to passage.

Experiment [4] deals with TP53/CDKN2A^KO GEJ organoids xenograft. Nature of the experiment: Xenotransplantation of TP53/CDKN2A^KO organoid cells in nude mice. Format: in vivo. The settings on record: 5 mg/kg.d intraperitoneal every two days for 3 weeks; 3-month observation; vs 1.25% DMSO. On the procedure:
(§2) All procedures and experimental protocols involving mice were approved by the Animal Experimental Committee of the Johns Hopkins University School of Medicine. For xenotransplantation of organoids, 2×10^6 organoid cells or ESO26 cells resuspended in cold 50% Matrigel were injected into the axillary of nude mice. For the WEB2086 treatment assay, 5 mg/kg.d of WEB2086 or vehicle control (1.25% DMSO in PBS) was administered by intraperitoneal injection every two days for 3 weeks. Xenograft size was measured twice a week. The xenograft volume (V) was monitored by measuring the length (L) and width (W) with a caliper based on the formula V=1/2×(L×W^2). Mice were sacrificed at the end of the experiment, and xenografts were excised for further analyses.

Another experiment deals with Eso26 xenograft. Nature of the experiment: Eso26 EAC cell line xenograft in nude mice. The format is in vivo. The procedure:
as §1
Immunohistochemistry was performed using the automated Bond-Max autostainer by Leica for the following antibodies: AE1/AE3 (1:200, Santa Cruz). Images were acquired with a Lecia Inverted Confocal SP8 (Johns Hopkins Medicine Ross Imaging Center). Reagents used here are listed in the Key Resources Table.
as §2

The mark [5] stands for this setting: WEB2086 5 mg/kg.d intraperitoneal every two days for 3 weeks vs vehicle.

For `Cc1nnc2n1-c1sc(CCC(=O)N3CCOCC3)cc1C(c1ccccc1Cl)=NC2` [WEB2086], the Ki-67 labeling index entry in experiment [1] was “significantly reduced”. For the same molecule, the “metabolically active cells (WST-1), onset of decrease” value in experiment [2] (WEB2086 at various concentrations vs 0.1% DMSO) was “began to decrease on day 4”. For the same molecule, the “inhibitory effect on metabolically active cells (WST-1)” value in experiment [2] (WEB2086 at various concentrations, day 7 and 10) is “time- and dose-dependent inhibitory effect”. Further, the organoid size result in experiment [3] is “significantly reduced”. Further, the tumor formation entry in experiment [4] was “completely prevented tumor formation”. Further, in the experiment with Eso26 xenograft (setting [5]), the EAC xenograft growth entry is recorded as “significant suppression” and the EAC xenograft weight result is reported as “significant suppression”. Besides, the “Ki67 expression in tumor xenografts (IHC)” value with Eso26 xenograft (WEB2086 treated Eso26 tumor xenografts) is “downregulated expression”.

The values are drawn from US20250283048A1, “PLATELET-ACTIVATING FACTOR BLOCKADE INHIBITS TUMOR GROWTH” (The Johns Hopkins University, priority 2022, published 2025).
